We go through 13 molecules from patent US20080096903A1, “SULFAMOYL-CONTAINING DERIVATIVES AND USES THEREOF” (Wyeth, priority 2006, published 2008).

Each structure is given as a SMILES string. Like-named read-outs stand apart in the source and are kept apart here.

Assay [1] deals with Hsp90α Protein (Homo sapiens, UniProt P07900). The assay can be described thus: Hsp90 CE Competitive Binding Assay (displacement of fluorescein-labelled geldanamycin). As for the experimental part: Hsp90 CE Competitive Binding Assay: […]
b) “Competitor”, fluorescein-labelled geldanamycin • The competitor was synthesized as described by Llauger-Bufi et al, Bioorg.
The electrophoresis running buffer (RB) is comprised of 200 mM CAPSO, pH 9.2 (pH-adjusted with Trizma base). The sample buffer (SB) is comprised of 10 mM Trizma base, pH 8.0 (pH-adjusted with glacial acetic acid), 5 mM MgCl2, 5 mM DTT, and BSA and Triton as noted.
Capillary electrophoresis was performed on Cetek Gemini Systems™ using laser-induced fluorescence detection. Fused-silica capillaries (50 μm I.D.×30 cm, approximately 10 cm length from end to detection window) were internally coated using Cetek's proprietary methods.
Each sample (i.e., fermentation extract, partially-purified fraction, or compound mixture, or pure compound) to be assayed is prediluted 1:20 or 1:40 in SB containing 0.02% Triton. 1 μl of each prediluted sample is then deposited into a 96-well microtiter plate and mixed with 8 μl of Target Cocktail. These samples can be stored at 4° C. until ready for assay.
When ready for analysis, the plates are transferred to the deck of a Gemini System. To each mixture of sample and target, 1 μl of Competitor Cocktail is added and mixed thoroughly. This reaction mixture is allowed to incubate for 8 minutes on the refrigerated deck of the Gemini System (temperature 8° C.). During incubation, the CE capillary is rinsed for 30 seconds with RB containing 2 mg/ml BSA, and then 60 seconds with RB. At the end of incubation, a small plug of the reaction mixture is then injected into the capillary at low pressure (0.5 psi) for 7 seconds. The loaded capillary is then dipped into reservoirs containing RB and the sample is electrophoresed at 10 kV for 6 minutes at a temperature of 8° C.
The electrophoretic separation produces a graphical profile known as an “electropherogram,” which contains a peak representing the intact complex between Hsp90 and competitor, and a smaller series (typically, a triplet) of peaks representing unbound competitor. […] Dose-response experiments, which evaluate the degree of competitor displacement as a function of sample concentration, are subsequently run in triplicate to validate hits and to quantitate their potencies, which are expressed as IC50 values.
Negative controls are comprised of 0.5% DMSO, and positive controls are comprised of 0.1 μg/ml 17-AAG.

For assay [2], the system named is HER2/Neu protein in SK-OV-3 cells. The assay can be described thus: Hsp90 Client Protein Degradation Assay. The format is cell-based. Conditions: for IC50: Homo sapiens, 50% degradation of HER2/Neu protein, SK-OV-3 cells, overnight. As for the experimental part:
Hsp90 Client Protein Degradation Assay
SK-OV-3 cells were obtained from ATCC (Rockville, Md.) and maintained in McCoy's 5A Media with 10% Fetal Bovine Serum (ATCC) at 37° C. with 5% CO2 in humidified incubators. Cells were plated at 2 ml per well at 100,000 cells/ml in six well dishes. Cells were incubated overnight at 37° C. and given test agent compound the following day in a titrated series. Cell incubation in the presence of compound proceeded overnight at 37° with 5% CO2 in media in the presence of serum. The following day media was aspirated and cells washed on plate with 2 mls of cold D-PBS. 100 ul of 1× Laemli's buffer was added to each well and total protein obtained by scraping the cell pellet and removing to 1.5 ml Eppendorf tube on ice. Cells were further lysed and DNA was fragmented by sonication and cells debris pelleted at 14 K for 3 min at 4° C. 20 ul was loaded per well and fractionated on PAGE gels. Western analyses were performed using abs specifically for the Hsp90 client proteins HER-2 (Santa Cruz Biotech, Santa Cruz, Calif.) and c-raf-1 (Cell Signaling Technology, Danvers, Mass.). Loading per well was controlled by testing for g-actin on Western Blots (Cell Signaling Technology) simultaneous to testing for HER-2 or c-raf-1. Detection was via a secondary antibody conjugated to Horse radish peroxidase (HRP) and enhanced chemiluminescent detection from Supersignal West Pico Detection Kits from Pierce (Rockford, Ill.). Autoradiography was via Kodak X-OMAT film and developing via a Kodak M35 film processor.

For assay [3], the system named is Human cancer cell lines. Description: Cancer-Derived Cell Line Growth Inhibition Assays. Particulars: 72 h, 3 days, Cell Titer Blue. The format is cell-based. The method, then: Cancer-Derived Cell Line Growth Inhibition Assays
Human cancer cell lines were obtained from ATCC (Rockville, Md.) and maintained according to their media specifications at 37° C. in humidified incubators with or without 5% CO2. Cells were plated at 0.1 ml/well of 50,000 cells per ml in 96 well plates. Monolayer grown cells were incubated overnight prior to the addition of compound while cells grown in suspension are given compound on the same day as plating. The test agent is titrated in duplicate for each compound and concentration tested. Cells are incubated in the presence of compound at 37° C. in humidified incubators for 3 days prior to addition of 20 ul of Cell Titer Blue (Promega, Madison, Wis.) which quantifies total cellular metabolic activity by conversion of resazurin to resorufin. Cell titer blue measures metabolic activity by quantifying the amount of biological activity present in a well using reduction of the dye resazurin as an end-point metric. Cells then are allowed to incubate at 37° C. for 2 hours and then analyzed using a Bio-TEK (Winooski, Vt.) Synergy HT 96/384 well plate reader set for 530 nm/590 nm, Ex/Em. Data analysis and depiction is conducted using EXCEL.
(The colour change of resazurin is a common sign of viable cells or microbes.)

For assay [4], the system named is Hsp90 (luciferase refolding, cancer cell lysate). Description: Luciferase Refolding Assay. The class given is biochemical. Conditions: inhibition of luciferase refolding by Hsp90. As for the experimental part: Luciferase Refolding Assay
• A. Cancer cells are cultured according to ATCC guidelines. Cell lysates are prepared as follows to be used as source of heat shock proteins: Resuspend the washed cell pellet in 3˜10 packed cell volumes of Buffer A (10 mM HEPES pH 7.9, 1.5 mM MgCl2, 10 mM KCl, 0.5 mM DTT, and 0.2 mM PMSF). Spin at 2000 rpm for 5 minutes in GS-6R (Beckman) centrifuge, 4° C. and resuspend cells in Buffer A up to a final of 3 packed cell volumes (i.e., add ˜2 volumes). Incubate on ice for 10 minutes. Transfer the cells to a Wheaton A Dounce homogenizer and lyse with 10-25 strokes. Stain an aliquot with Trypan Blue and check for >90% lysis under microscope. Spin the homogenized mixture at 3000 rpm for 20 minutes in GS-6R (Beckman) centrifuge, 4° C., to pellet nuclei. To the cytoplasmic fraction (cell lysate), add 1 mM ATP, 14.3 mM creatine phosphate, 71 μg/ml phosphokinase, 3 mM DTT, 113 mM KAc, and 0.7 mM MgAc2. Aliquot into eppendorf tubes and freeze at −80° C. • B. Luciferase Stability Buffer (SB): 25 mM Tris-HCl, pH 7.8; 8 mM MgSO4; 0.1 mM EDTA; 10 mg/ml BSA; 10% Glycerol; 0.25% Triton X-100. Make 2×SB and store at −20° C. • C. Cell Lysate (CL) Buffer: Buffer A containing 1 mM ATP; 14.3 mM creatine phosphate; 71 ug/ml phosphokinase; 3 mM DTT; 113 mM KAc; and 0.7 mM MgAc2. • D. Luciferase: Promega E1701, 14.9 mg/ml=244 μM. Dilute 1:60 in 30 mM Tris-HCl, pH 7.4, 2 mM DTT, and 20% glycerol, resulting in a stock luciferase solution with concentration of 4 μM (250 ng/μl). • E. Luciferase substrate: Promega E1500. Procedure: • 1) Mix luciferase solution 1:1 with 2× SB buffer. Incubate at 42° C. for 8 min to denature. […] Data analysis: Luciferase refolding activity of a cell lysate sample with or without HSP90 inhibitor is represented as the net of luminescence reading from a cell lysate sample subtracting results from negative control (no cell lysate or heat shock proteins). Inhibition effect of a compound is calculated as the percentage of refolding activity relative to samples without any inhibitors in the cell lysate.
The ability of selected compounds of the invention to inhibit luciferase refolding by Hsp90 based on this assay is summarized in Table 14.

[5] abbreviates: Table 14, inhibition of binding of labeled geldanamycin to Hsp90, read-out: CE IC50.
The mark [6] stands for this setting: initial structure activity relationship table, read-out: HSP90 CE IC50.
[7] abbreviates: versus corresponding alcohol (R═H).

Usually IC50 stands for the midpoint of a concentration-inhibition curve. On to `Nc1nc(F)nc2c1nc(Cc1cc3c(cc1I)OCO3)n2CCCCCCCCOS(N)(=O)=O` [Example 7, Sulfamic Acid 8-[6-amino-2-fluoro-8-(6-iodo-benzo[1,3]dioxol-5-ylmethyl)-purin-9-yl]-octyl ester], for which the results for the IC50 in assay [1] (setting [5]), in assay [2] and in assay [3] were less than 2000 nM, less than 50000 nM and less than 100000 nM, respectively.
As for `Nc1nc(F)nc2c1nc(Cc1cc3c(cc1I)OCO3)n2CCOCCOS(N)(=O)=O` [Example 8, Sulfamic Acid 2-{2-[6-amino-2-fluoro-8-(6-iodo-benzo[1,3]dioxol-5-ylmethyl)-purin-9-yl]-ethoxy}-ethyl ester], the IC50 was less than 40 nM in assay [1] (setting [5]), less than 3000 nM in assay [2], less than 5000 nM in assay [3] and less than 1000 nM in assay [4].
In the case of `Nc1nc(F)nc2[nH]c(Cc3cc4c(cc3I)OCO4)nc12` [Intermediate 5, 2-Fluoro-8-(6-iodo-benzo[1,3]dioxol-5-ylmethyl)-9H-purin-6-ylamine], the IC50 in assay [1] (setting [5]) is less than 2000 nM; in assay [2], less than 50000 nM; in assay [3], less than 100000 nM; in assay [4] it was less than 5000 nM.
The like results for `Nc1nc(F)nc2c1nc(Cc1cc3c(cc1I)OCO3)n2CCOCCCCOS(N)(=O)=O` [Example 10, Sulfamic Acid 4-{2-[6-amino-2-fluoro-8-(6-iodo-benzo[1,3]dioxol-5-ylmethyl)-purin-9-yl]-ethoxy}-butyl ester] were, in that order, less than 40 nM, less than 3000 nM, less than 5000 nM and less than 1000 nM.
On the same counts, the results for `Nc1nc(F)nc2c1nc(Cc1cc3c(cc1I)OCO3)n2CCOCCCOS(N)(=O)=O` [Example 9, Sulfamic Acid 3-{2-[6-amino-2-fluoro-8-(6-iodo-benzo[1,3]dioxol-5-ylmethyl)-purin-9-yl]-ethoxy}-propyl ester] are less than 40 nM, less than 3000 nM, less than 5000 nM and less than 1000 nM.
On the same counts, the results for `Nc1nc(F)nc2c1nc(Cc1cc3c(cc1I)OCO3)n2CCCCCCCOS(N)(=O)=O` [Example 6, Sulfamic Acid 7-[6-amino-2-fluoro-8-(6-iodo-benzo[1,3]dioxol-5-ylmethyl)-purin-9-yl]-heptyl ester] are less than 40 nM, less than 3000 nM, less than 5000 nM and less than 1000 nM.
For the molecule `Nc1nc(F)nc2c1nc(Cc1cc3c(cc1I)OCO3)n2CCOS(N)(=O)=O` [Example 1, Sulfamic Acid 2-[6-amino-2-fluoro-8-(6-iodo-benzo[1,3]dioxol-5-ylmethyl)-purin-9-yl]-ethyl ester], the IC50 was less than 40 nM in assay [1] (setting [5]), less than 3000 nM in assay [2], less than 5000 nM in assay [3] and less than 1000 nM in assay [4].
For the molecule `Nc1nc(F)nc2c1nc(Cc1cc3c(cc1I)OCO3)n2CCCCCOS(N)(=O)=O` [Example 4, Sulfamic Acid 5-[6-amino-2-fluoro-8-(6-iodo-benzo[1,3]dioxol-5-ylmethyl)-purin-9-yl]-pentyl ester], the IC50 in assay [1] (setting [5]) is less than 40 nM; in assay [2], less than 3000 nM; in assay [3], less than 5000 nM; in assay [4] it was less than 1000 nM.
`Nc1nc(F)nc2c1nc(Cc1cc3c(cc1I)OCO3)n2CCCOS(N)(=O)=O` [Example 2, Sulfamic Acid 3-[6-Amino-2-fluoro-8-(6-iodo-benzo[1,3]dioxol-5-ylmethyl)-purin-9-yl]-propyl ester]: the IC50 was less than 40 nM in assay [1] (setting [5]), less than 3000 nM in assay [2], less than 5000 nM in assay [3] and less than 1000 nM in assay [4].
`Nc1nc(F)nc2c1ncn2C1OC(COS(N)(=O)=O)C(O)C1O` (centres unmarked) [FSA, reference compound]: in assay [1] (setting [6]), the IC50 was 700 nM.
On the same count and under the same terms, for `Nc1ncnc2c1ncn2C1OC(COP(=O)(O)O)C(O)C1O` (centres unmarked) [AMP, reference compound] the value was more than 144000 nM.
For `Nc1nc(F)nc2c1nc(Cc1cc3c(cc1I)OCO3)n2CCCCCCOS(N)(=O)=O` [Example 5, Sulfamic Acid 6-[6-amino-2-fluoro-8-(6-iodo-benzo[1,3]dioxol-5-ylmethyl)-purin-9-yl]-hexyl ester], the IC50 is less than 40 nM in assay [1] (setting [5]), less than 3000 nM in assay [2], less than 5000 nM in assay [3] and less than 1000 nM in assay [4]. Moreover, the “more activity than the corresponding alcohol (R═H), CE Hsp90 assay” value in assay [1] (setting [7]) turned out to be 35 fold. Moreover, the “more activity than the corresponding alcohol (R═H), client protein assay” value in assay [2] (setting [7]) came to 16 fold.
Molecule `Nc1nc(F)nc2c1ncn2C1OC(CO)C(O)C1O` (centres unmarked) [Fluoroadenosine (FA), Fluoroadenosine, reference compound] had an IC50 in assay [1] of 22000 nM.
